Experiments:
DDR1 = molecular target: T1, DDR1 (Homo sapiens, UniProt Q08345); test: LanthaScreen Europium Kinase Binding assay, DDR1; settings: 5 nM DDR1, 20 nM Kinase Tracer 178, 1 h at rt; Ki from IC50 by Cheng-Prusoff; read-out: Ki DDR1
T1 construct: purchased Carna Biosciences
Procedure, shortened: (§1)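 Compounds were incubated 1 h at rt with 5 nM DDR1 plus 20 nM Kinase Tracer 178, or 5 nM DDR2 plus 10 nM tracer, and 2 nM Eu anti-GST antibody in HEPES pH 7.5 buffer. Read-out was the TR-FRET 665/615 nm ratio. IC50 came from a 4-parameter fit and was converted to Ki by Cheng-Prusoff.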

DDR2 = molecular target: T2, DDR2 (Homo sapiens, UniProt Q16832); test: LanthaScreen Europium Kinase Binding assay, DDR2; settings: 5 nM DDR2, 10 nM Kinase Tracer 178, 1 h at rt; Ki from IC50 by Cheng-Prusoff; read-out: Ki DDR2
T2 construct: purchased Life Technologies
T2 sequence (Q16832 22-855): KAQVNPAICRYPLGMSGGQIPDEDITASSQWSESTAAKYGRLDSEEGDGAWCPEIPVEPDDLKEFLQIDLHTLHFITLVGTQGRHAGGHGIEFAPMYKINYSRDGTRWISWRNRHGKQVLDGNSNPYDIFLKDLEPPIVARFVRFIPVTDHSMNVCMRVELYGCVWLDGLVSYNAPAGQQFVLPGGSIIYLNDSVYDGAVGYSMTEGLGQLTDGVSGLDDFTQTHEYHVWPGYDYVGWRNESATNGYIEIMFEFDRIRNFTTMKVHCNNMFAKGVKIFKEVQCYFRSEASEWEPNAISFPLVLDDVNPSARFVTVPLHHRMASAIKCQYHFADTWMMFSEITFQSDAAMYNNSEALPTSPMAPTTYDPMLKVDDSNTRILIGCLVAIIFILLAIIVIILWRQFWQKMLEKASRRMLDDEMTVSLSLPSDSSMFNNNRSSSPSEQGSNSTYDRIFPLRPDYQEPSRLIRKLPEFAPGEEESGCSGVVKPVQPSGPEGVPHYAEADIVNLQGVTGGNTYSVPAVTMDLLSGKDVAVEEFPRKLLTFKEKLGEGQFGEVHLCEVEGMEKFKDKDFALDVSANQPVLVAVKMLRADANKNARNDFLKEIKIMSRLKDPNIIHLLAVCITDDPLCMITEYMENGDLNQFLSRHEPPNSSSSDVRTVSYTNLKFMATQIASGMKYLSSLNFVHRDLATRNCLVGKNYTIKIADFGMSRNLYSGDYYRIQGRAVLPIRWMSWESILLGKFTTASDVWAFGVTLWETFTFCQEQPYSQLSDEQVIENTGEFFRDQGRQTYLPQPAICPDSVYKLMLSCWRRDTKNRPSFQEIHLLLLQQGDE
Procedure, shortened: as §1

T1 sequence (Q08345 19-913): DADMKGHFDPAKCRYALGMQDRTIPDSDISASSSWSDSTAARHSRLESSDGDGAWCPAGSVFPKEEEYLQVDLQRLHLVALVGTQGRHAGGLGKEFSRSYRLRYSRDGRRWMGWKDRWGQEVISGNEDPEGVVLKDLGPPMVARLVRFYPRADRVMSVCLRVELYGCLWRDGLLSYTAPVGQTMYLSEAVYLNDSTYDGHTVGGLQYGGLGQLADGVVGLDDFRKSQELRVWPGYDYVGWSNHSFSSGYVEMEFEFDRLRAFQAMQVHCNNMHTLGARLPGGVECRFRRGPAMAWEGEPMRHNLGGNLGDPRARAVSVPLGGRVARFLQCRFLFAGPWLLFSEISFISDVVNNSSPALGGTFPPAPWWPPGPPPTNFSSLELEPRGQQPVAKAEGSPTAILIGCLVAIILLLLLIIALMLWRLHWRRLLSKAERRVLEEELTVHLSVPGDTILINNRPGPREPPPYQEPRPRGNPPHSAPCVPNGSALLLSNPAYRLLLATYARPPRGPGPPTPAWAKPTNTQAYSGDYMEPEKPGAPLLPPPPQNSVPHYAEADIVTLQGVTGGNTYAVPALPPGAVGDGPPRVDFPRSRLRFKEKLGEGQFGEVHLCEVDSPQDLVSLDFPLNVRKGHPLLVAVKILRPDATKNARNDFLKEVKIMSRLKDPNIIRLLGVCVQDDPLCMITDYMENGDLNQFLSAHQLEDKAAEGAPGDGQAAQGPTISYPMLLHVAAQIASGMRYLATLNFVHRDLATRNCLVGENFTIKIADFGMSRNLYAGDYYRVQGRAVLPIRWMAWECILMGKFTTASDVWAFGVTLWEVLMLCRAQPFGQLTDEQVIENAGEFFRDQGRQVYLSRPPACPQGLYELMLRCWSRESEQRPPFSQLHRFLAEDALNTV

Row | Ki (DDR1) [nM] | Ki (DDR2) [nM] | Compound
1 | < 5 | 5 to 25 | Cc1ccc(C(=O)Nc2cncc(C(F)(F)F)c2)cc1[C@@H]1CCN(c2cncc(OCCN3CCN(C)CC3)c2)C1 [Example 74, (S)-4-methyl-3-(1-(5-(2-(4-methylpiperazin-1-yl)ethoxy)pyridin-3-yl)pyrrolidin-3-yl)-N-(5-(trifluoromethyl)pyridin-3-yl)benzamide]
2 | < 5 | < 5 | Cc1ccc(C(=O)Nc2cncc(C(F)(F)F)c2)cc1[C@@H]1CCN(c2cnccc2C#N)C1 [Example 75, (S)-3-(1-(4-cyanopyridin-3-yl)pyrrolidin-3-yl)-4-methyl-N-(5-(trifluoromethyl)pyridin-3-yl)benzamide]
3 | < 5 | < 5 | COc1ccncc1N1CC[C@@H](c2cc(C(=O)Nc3cncc(C(F)(F)F)c3)ccc2C)C1 [Example 76, (S)-3-(1-(4-methoxypyridin-3-yl)pyrrolidin-3-yl)-4-methyl-N-(5-(trifluoromethyl)pyridin-3-yl)benzamide]
4 | < 5 | 5 to 25 | Cc1ccc(C(=O)Nc2cncc(C(F)(F)F)c2)cc1[C@@H]1CCN(c2cnc3ccc(CN4CCOCC4)cn23)C1 [Example 77, (S)-4-methyl-3-(1-(6-(morpholinomethyl)imidazo [1,2-a]pyridin-3-yl)pyrrolidin-3-yl)-N-(5-(trifluoromethyl)pyridin-3-yl)benzamide]
5 | < 5 | < 5 | Cc1ccc(C(=O)Nc2cncc(C(F)(F)F)c2)cc1[C@@H]1CCN(c2cnc3ccc(C#N)cn23)C1 [Example 78, (S)-3-(1-(6-cyanoimidazo[1,2-a]pyridin-3-yl)pyrrolidin-3-yl)-4-methyl-N-(5-(trifluoromethyl)pyridin-3-yl)benzamide]
6 | < 5 | 5 to 25 | COCCOc1cncc(N2CC[C@@H](c3cc(C(=O)Nc4cncc(C(F)(F)F)c4)ccc3C)C2)c1 [Example 79, (S)-3-(1-(5-(2-methoxyethoxy)pyridin-3-yl)pyrrolidin-3-yl)-4-methyl-N-(5-(trifluoromethyl)pyridin-3-yl)benzamide]
7 | 5 to 25 | 5 to 25 | Cc1ccc(C(=O)Nc2cncc(C(F)(F)F)c2)cc1[C@@H]1CCN(c2cnc3ccc(N4CCN(C)CC4)nn23)C1 [Example 80, (S)-4-methyl-3-(1-(6-(4-methylpiperazin-1-yl)imidazo[1,2-b]pyridazin-3-yl)pyrrolidin-3-yl)-N-(5-(trifluoromethyl)pyridin-3-yl)benzamide]
8 | < 5 | 5 to 25 | Cc1ccc(C(=O)Nc2cncc(C(F)(F)F)c2)cc1[C@@H]1CCN(c2cncc(OC3CCN(C)CC3)c2)C1 [Example 81, (S)-4-methyl-3-(1-(5-((1-methylpiperidin-4-yl)oxy)pyridin-3-yl)pyrrolidin-3-yl)-N-(5-(trifluoromethyl)pyridin-3-yl)benzamide]
9 | < 5 | 5 to 25 | Cc1ccc(C(=O)Nc2cncc(C(F)(F)F)c2)cc1[C@@H]1CCN(c2cnn3ccc(N4CCN(C)CC4)nc23)C1 [Example 83, (S)-4-methyl-3-(1-(5-(4-methylpiperazin-1-yl)pyrazolo[1,5-a]pyrimidin-3-yl)pyrrolidin-3-yl)-N-(5-(trifluoromethyl)pyridin-3-yl)benzamide]
10 | < 5 | 5 to 25 | Cc1ccc(C(=O)Nc2cncc(C(F)(F)F)c2)cc1[C@@H]1CCN(c2cnc3ccc(N4CCOCC4)nn23)C1 [Example 84, (S)-4-methyl-3-(1-(6-morpholinoimidazo[1,2-b]pyridazin-3-yl)pyrrolidin-3-yl)-N-(5-(trifluoromethyl)pyridin-3-yl)benzamide]
11 | < 5 | 5 to 25 | CC(=O)Nc1cc(N2CC[C@@H](c3cc(C(=O)Nc4cncc(C(F)(F)F)c4)ccc3C)C2)ccn1 [Example 85, (S)-3-(1-(2-acetamidopyridin-4-yl)pyrrolidin-3-yl)-4-methyl-N-(5-(trifluoromethyl)pyridin-3-yl)benzamide]
12 | < 5 | 5 to 25 | Cc1ccn2ncc(N3CC[C@@H](c4cc(C(=O)Nc5cncc(C(F)(F)F)c5)ccc4C)C3)c2n1 [Example 86, (S)-4-methyl-3-(1-(5-methylpyrazolo[1,5-a]pyrimidin-3-yl)pyrrolidin-3-yl)-N-(5-(trifluoromethyl)pyridin-3-yl)benzamide]
13 | < 5 | 5 to 25 | CNC(=O)c1cc(N2CC[C@@H](c3cc(C(=O)Nc4cncc(C(F)(F)F)c4)ccc3C)C2)ccn1 [Example 87, (S)-N-methyl-4-(3-(2-methyl-5-((5-(trifluoromethyl)pyridin-3-yl)carbamoyl)phenyl)pyrrolidin-1-yl)picolinamide]
14 | 5 to 25 | 5 to 25 | Cc1ccc(C(=O)Nc2cncc(C(F)(F)F)c2)cc1[C@@H]1CCN(c2cnn(C)c2)C1 [Example 88, (S)-4-methyl-3-(1-(1-methyl-1H-pyrazol-4-yl)pyrrolidin-3-yl)-N-(5-(trifluoromethyl)pyridin-3-yl)benzamide]
15 | < 5 | 5 to 25 | Cc1ccc(C(=O)Nc2cncc(C(F)(F)F)c2)cc1[C@@H]1CCN(c2cnn3ccc(C(=O)N4CCOCC4)cc23)C1 [Example 89, (S)-4-methyl-3-(1-(5-(morpholine-4-carbonyl)pyrazolo[1,5-a]pyridin-3-yl)pyrrolidin-3-yl)-N-(5-(trifluoromethyl)pyridin-3-yl)benzamide]
16 | < 5 | < 5 | Cc1ccc(C(=O)Nc2cc(OC(F)F)ccn2)cc1[C@@H]1CCN(c2cnn3cccnc23)C1 [Example 91, N-[4-(difluoromethoxy)-2-pyridyl]-4-methyl-3-[(3S)-1-pyrazolo[1,5-a]pyrimidin-3-ylpyrrolidin-3-yl]benzamide]
17 | < 5 | 5 to 25 | Cc1ccc(C(=O)Nc2cc(OC(F)F)ccn2)cc1[C@@H]1CCN(c2cnccn2)C1 [Example 92, N-[4-(difluoromethoxy)-2-pyridyl]-4-methyl-3-[(3S)-1-pyrazin-2-ylpyrrolidin-3-yl]benzamide]
18 | < 5 | < 5 | Cc1ccc(C(=O)Nc2cc(OC(F)F)ccn2)cc1[C@@H]1CCN(c2cnccc2C#N)C1 [Example 93, 3-[(3S)-1-(4-cyano-3-pyridyl)pyrrolidin-3-yl]-N-[4-(difluoromethoxy)-2-pyridyl]-4-methyl-benzamide]
19 | < 5 | 5 to 25 | Cc1ccc(C(=O)Nc2cc(OC(F)F)ccn2)cc1[C@@H]1CCN(c2cncc(C#N)n2)C1 [Example 94, (S)-3-(1-(6-cyanopyrazin-2-yl)pyrrolidin-3-yl)-N-(4-(difluoromethoxy)pyridin-2-yl)-4-methyl-benzamide]
20 | < 5 | < 5 | CCc1cc(NC(=O)c2ccc(C)c([C@@H]3CCN(c4cnn5cccnc45)C3)c2)no1 [Example 95, (S)-N-(5-ethylisoxazol-3-yl)-4-methyl-3-(1-(pyrazolo[1,5-a]pyrimidin-3-yl)pyrrolidin-3-yl)benzamide]
21 | < 5 | < 5 | CCc1cc(NC(=O)c2ccc(C)c([C@@H]3CCN(c4cnn5ccncc45)C3)c2)no1 [Example 96, (S)-N-(5-ethylisoxazol-3-yl)-4-methyl-3-(1-(pyrazolo[1,5-a]pyrazin-3-yl)pyrrolidin-3-yl)benzamide]
22 | < 5 | 5 to 25 | COc1cnc2c(N3CC[C@@H](c4cc(C(=O)Nc5cncc(C(F)(F)F)c5)ccc4C)C3)cnn2c1 [Example 97, (S)-3-(1-(6-methoxypyrazolo[1,5-a]pyrimidin-3-yl)pyrrolidin-3-yl)-4-methyl-N-(5-(trifluoromethyl)pyridin-3-yl)benzamide]
23 | < 5 | < 5 | Cc1ccc(C(=O)Nc2cncc(OC(F)(F)F)c2)cc1[C@@H]1CCN(c2cnn3ccncc23)C1 [Example 98, (S)-4-methyl-3-(1-(pyrazolo[1,5-a]pyrazin-3-yl)pyrrolidin-3-yl)-N-(5-(trifluoromethoxy)pyridin-3-yl)benzamide]
24 | < 5 | 5 to 25 | CNc1ncc(N2CC[C@@H](c3cc(C(=O)Nc4cncc(C(F)(F)F)c4)ccc3C)C2)cn1 [Example 99, (S)-4-methyl-3-(1-(2-(methylamino)pyrimidin-5-yl)pyrrolidin-3-yl)-N-(5-(trifluoromethyl)pyridin-3-yl)benzamide]
25 | < 5 | 5 to 25 | Cc1ccc(C(=O)Nc2cncc(C(F)(F)F)c2)cc1[C@@H]1CCN(c2cn[nH]c2)C1 [Example 100, (S)-3-(1-(1H-pyrazol-4-yl)pyrrolidin-3-yl)-4-methyl-N-(5-(trifluoromethyl)pyridin-3-yl)benzamide]

Reference: US20260242353A1, “HETEROARYL DERIVATIVES AS DDRs INHIBITORS” (CHIESI FARMACEUTICI S.P.A., priority 2022, published 2026)
